In patent publication US20250129070A1, “BIFUNCTIONAL ANDROGEN RECEPTOR COMPOUNDS” (priority 2023, published 2025):

Columns and labels:
Assay type in all cases: cell-based
VCaP cells = assay: VCaP growth inhibition assay; conditions: 30 pM R1881, 9 days, CTG
Procedure, shortened: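 Growth read by CTG luminescence after 9-day exposure to compound (final 100 nM–10 fM, 1:5 steps) plus 30 pM R1881, in phenol red-free DMEM with 5% CSS. Cells pre-incubated 72 h before dosing; IC50 by nonlinear 4-parameter regression.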

HEK-293 cells = assay: HEK-293 growth inhibition assay; conditions: 3 days, CTG
Method: Cluster plates are returned to the incubator (37*C/5% CO2) for 24 hours prior to treatment. […] Cluster plates are returned to the incubator for 3 days.
After the 3-day treatment period, 100 uL media was removed from each well by aspiration and 100 uL room temperature CTG reagent (Promega Cat #G7573) is added back to each well. The cluster plates are placed on a shaker and incubated at room temperature for 20 minutes. Following this shaking/incubation, cluster plates are read on a luminometer (BMG ClarioStar). IC50 values are obtained by graphing the RLU data vs. compound concentration with nonlinear regression 4-parameter logistic curves (GraphPad Prism).

AR / CBP ternary complex = assay: Ternary complex formation assay (sandwich ELISA, AR capture / CBP detection) in VCaP cell lysates; conditions: 1.5 hours treatment, sandwich ELISA (AR capture, CBP or p300 detection)
Procedure, shortened: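 Anti-AR (AR 441)-coated plates capture AR from lysates of VCaP cells grown ≥3 days at 50K/well in 5% charcoal-stripped FBS, dosed with bifunctional for 1.5 h and lysed 30 min at 4 °C. Co-captured CBP/p300 is probed with rabbit mAb and HRP anti-rabbit, then QuantaRed fluorescence (570/585) is read at 0, 5 and 15 min.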

| IC50 (VCaP cells) | EC50 (AR / CBP ternary complex) | Structure (SMILES) | IC50 (HEK-293 cells) |
| --- | --- | --- | --- |
| ≤ 0.1 nM | < 1 nM | CC(=O)N1CCc2c(c(N3CCCc4cc(-c5cnn(C)c5)c(C(F)F)cc43)nn2C2CCN(C(=O)CN3CCN(c4ncc(C(=O)NC5C(C)(C)C(Oc6ccc(C#N)c(Cl)c6)C5(C)C)cn4)CC3)CC2)C1 (stereo not drawn) [Compound 96, 2-[4-[2-[4-[5-acetyl-3-[7-(difluoromethyl)-6-(1-methylpyrazol-4-yl)-3,4-dihydro-2H-quinolin-1-yl]-6,7-dihydro-4H-pyrazolo[4,3-c]pyridin-1-yl]-1-piperidyl]-2-oxo-ethyl]piperazin-1-yl]-N-[3-(3-chloro-4-cyano-phenoxy)-2,2,4,4-tetramethyl-cyclobutyl]pyrimidine-5-carboxamide] | > 10000 nM |
| > 100 nM | < 1 nM | CNC(=O)N1CCc2c(c(N3CCCc4cc(-c5cnn(C)c5)c(C(F)F)cc43)nn2C2CCN(CCc3ncc(C(=O)NC4C(C)(C)C(Oc5ccc(C#N)c(Cl)c5)C4(C)C)cn3)CC2)C1 (stereo not drawn) [Compound 90, 1-[1-[2-[5-[[3-(3-chloro-4-cyano-phenoxy)-2,2,4,4-tetramethyl-cyclobutyl]carbamoyl]pyrimidin-2-yl]ethyl]-4-piperidyl]-3-[7-(difluoromethyl)-6-(1-methylpyrazol-4-yl)-3,4-dihydro-2H-quinolin-1-yl]-N-methyl-6,7-dihydro-4H-pyrazolo[4,3-c]pyridine-5-carboxamide] | 2160 nM |
| ≤ 0.1 nM | < 1 nM | CC(=O)N1CCc2c(c(N3CCCc4cc(-c5cnn(C)c5)c(C(F)F)cc43)nn2C2CCN(CC3CN(c4ncc(C(=O)NC5C(C)(C)C(Oc6ccc(C#N)c(Cl)c6)C5(C)C)cn4)C3)CC2)C1 (stereo not drawn) [Compound 20, 2-[3-[[4-[5-acetyl-3-[7-(difluoromethyl)-6-(1-methylpyrazol-4-yl)-3,4-dihydro-2H-quinolin-1-yl]-6,7-dihydro-4H-pyrazolo[4,3-c]pyridin-1-yl]-1-piperidyl]methyl]azetidin-1-yl]-N-[3-(3-chloro-4-cyano-phenoxy)-2,2,4,4-tetramethyl-cyclobutyl]pyrimidine-5-carboxamide] | > 10000 nM |
| 0.1 to 1 nM | < 1 nM | CNC(=O)N1CCc2c(c(N3CCCc4cc(-c5cnn(C)c5)c(C(F)F)cc43)nn2C2CCN(CCOc3ncc(C(=O)NC4C(C)(C)C(Oc5ccc(C#N)c(Cl)c5)C4(C)C)cn3)CC2)C1 (stereo not drawn) [Compound 87, 1-[1-[2-[5-[[3-(3-chloro-4-cyano-phenoxy)-2,2,4,4-tetramethyl-cyclobutyl]carbamoyl]pyrimidin-2-yl]oxyethyl]-4-piperidyl]-3-[7-(difluoromethyl)-6-(1-methylpyrazol-4-yl)-3,4-dihydro-2H-quinolin-1-yl]-N-methyl-6,7-dihydro-4H-pyrazolo[4,3-c]pyridine-5-carboxamide] | > 10000 nM |
| 0.1 to 1 nM | < 1 nM | CC(=O)N1CCc2c(c(N3CCCc4cc(-c5cnn(C)c5)c(C(F)F)cc43)nn2C2CCN(C(=O)CN3CCN(c4ncc(C(=O)NC5C(C)(C)C(Oc6ccc(C#N)c(Cl)c6)C5(C)C)cn4)CC3)C2)C1 (stereo not drawn) [Compound 64, 2-[4-[2-[3-[5-acetyl-3-[7-(difluoromethyl)-6-(1-methylpyrazol-4-yl)-3,4-dihydro-2H-quinolin-1-yl]-6,7-dihydro-4H-pyrazolo[4,3-c]pyridin-1-yl]pyrrolidin-1-yl]-2-oxo-ethyl]piperazin-1-yl]-N-[3-(3-chloro-4-cyano-phenoxy)-2,2,4,4-tetramethyl-cyclobutyl]pyrimidine-5-carboxamide] | > 10000 nM |
| 0.1 to 1 nM | < 1 nM | CC(=O)N1CCc2c(c(-c3cccc4cc(-c5ccc(C(=O)NCc6ncc(C(=O)NC7C(C)(C)C(Oc8ccc(C#N)c(Cl)c8)C7(C)C)cn6)nc5)ncc34)nn2C2CCOCC2)C1 (stereo not drawn) [Compound 79, 2-[[[5-[8-(5-acetyl-1-tetrahydropyran-4-yl-6,7-dihydro-4H-pyrazolo[4,3-c]pyridin-3-yl)-3-isoquinolyl]pyridine-2-carbonyl]amino]methyl]-N-[3-(3-chloro-4-cyano-phenoxy)-2,2,4,4-tetramethyl-cyclobutyl]pyrimidine-5-carboxamide] | > 10000 nM |
| ≤ 0.1 nM | < 1 nM | CC(=O)N1CCc2c(c(N3CCCc4cc(-c5cnn(C)c5)c(C(F)F)cc43)nn2C2CCN(C(=O)CC3CCN(c4ncc(C(=O)NC5C(C)(C)C(Oc6ccc(C#N)c(Cl)c6)C5(C)C)cn4)CC3)CC2)C1 (stereo not drawn) [Compound 172, 2-[4-[2-[4-[5-acetyl-3-[7-(difluoromethyl)-6-(1-methylpyrazol-4-yl)-3,4-dihydro-2H-quinolin-1-yl]-6,7-dihydro-4H-pyrazolo[4,3-c]pyridin-1-yl]-1-piperidyl]-2-oxo-ethyl]-1-piperidyl]-N-[3-(3-chloro-4-cyano-phenoxy)-2,2,4,4-tetramethyl-cyclobutyl]pyrimidine-5-carboxamide] | > 10000 nM |
| ≤ 0.1 nM | < 1 nM | CC(=O)N1CCc2c(c(N3CCCc4cc(-c5cnn(C)c5)c(C(F)F)cc43)nn2C2CCN(CC3C(C)CN(c4ncc(C(=O)NC5C(C)(C)C(Oc6ccc(C#N)c(Cl)c6)C5(C)C)cn4)CC3C)CC2)C1 (stereo not drawn) [Compound 350, 2-[4-[[4-[5-acetyl-3-[7-(difluoromethyl)-6-(1-methylpyrazol-4-yl)-3,4-dihydro-2H-quinolin-1-yl]-6,7-dihydro-4H-pyrazolo[4,3-c]pyridin-1-yl]-1-piperidyl]methyl]-3,5-dimethyl-1-piperidyl]-N-[3-(3-chloro-4-cyano-phenoxy)-2,2,4,4-tetramethyl-cyclobutyl]pyrimidine-5-carboxamide] | > 1000 nM |

| Structure (SMILES) | IC50 (VCaP cells) | EC50 (AR / CBP ternary complex) | IC50 (HEK-293 cells) |
| --- | --- | --- | --- |
| CNC(=O)N1CCc2c(c(N3CCCc4cc(-c5cnn(C)c5)c(C(F)F)cc43)nn2C2CCN(C(=O)CCN3CCN(c4ncc(C(=O)NC5C(C)(C)C(Oc6ccc(C#N)c(Cl)c6)C5(C)C)cn4)CC3)CC2)C1 (stereo not drawn) [Compound 108, 1-[1-[3-[4-[5-[[3-(3-chloro-4-cyano-phenoxy)-2,2,4,4-tetramethyl-cyclobutyl]carbamoyl]pyrimidin-2-yl]piperazin-1-yl]propanoyl]-4-piperidyl]-3-[7-(difluoromethyl)-6-(1-methylpyrazol-4-yl)-3,4-dihydro-2H-quinolin-1-yl]-N-methyl-6,7-dihydro-4H-pyrazolo[4,3-c]pyridine-5-carboxamide] | ≤ 0.1 nM | < 1 nM | > 10000 nM |
| CNC(=O)N1CCc2c(c(N3CCCc4cc(-c5cnn(C)c5)c(C(F)F)cc43)nn2C2CCN(C(=O)COCCCOCC3CCN(c4ncc(C(=O)NC5C(C)(C)C(Oc6ccc(C#N)c(Cl)c6)C5(C)C)cn4)CC3)CC2)C1 (stereo not drawn) [Compound 97, 1-[1-[2-[3-[[1-[5-[[3-(3-chloro-4-cyano-phenoxy)-2,2,4,4-tetramethyl-cyclobutyl]carbamoyl]pyrimidin-2-yl]-4-piperidyl]methoxy]propoxy]acetyl]-4-piperidyl]-3-[7-(difluoromethyl)-6-(1-methylpyrazol-4-yl)-3,4-dihydro-2H-quinolin-1-yl]-N-methyl-6,7-dihydro-4H-pyrazolo[4,3-c]pyridine-5-carboxamide] | ≤ 0.1 nM | < 1 nM | > 10000 nM |
| CNC(=O)N1CCc2c(c(N3CCCc4cc(-c5cnn(C)c5)c(C(F)F)cc43)nn2C2CCN(C(=O)COCCN3CCN(c4ncc(C(=O)NC5C(C)(C)C(Oc6ccc(C#N)c(Cl)c6)C5(C)C)cn4)CC3)CC2)C1 (stereo not drawn) [Compound 106, 1-[1-[2-[2-[4-[5-[[3-(3-chloro-4-cyano-phenoxy)-2,2,4,4-tetramethyl-cyclobutyl]carbamoyl]pyrimidin-2-yl]piperazin-1-yl]ethoxy]acetyl]-4-piperidyl]-3-[7-(difluoromethyl)-6-(1-methylpyrazol-4-yl)-3,4-dihydro-2H-quinolin-1-yl]-N-methyl-6,7-dihydro-4H-pyrazolo[4,3-c]pyridine-5-carboxamide] | ≤ 0.1 nM | < 1 nM | > 10000 nM |
| CNC(=O)N1CCc2c(c(N3CCCc4cc(-c5cnn(C)c5)c(C(F)F)cc43)nn2C2CCN(C(=O)COCCOCCCN3CCN(c4ncc(C(=O)NC5C(C)(C)C(Oc6ccc(C#N)c(Cl)c6)C5(C)C)cn4)CC3)CC2)C1 (stereo not drawn) [Compound 102, 1-[1-[2-[2-[3-[4-[5-[[3-(3-chloro-4-cyano-phenoxy)-2,2,4,4-tetramethyl-cyclobutyl]carbamoyl]pyrimidin-2-yl]piperazin-1-yl]propoxy]ethoxy]acetyl]-4-piperidyl]-3-[7-(difluoromethyl)-6-(1-methylpyrazol-4-yl)-3,4-dihydro-2H-quinolin-1-yl]-N-methyl-6,7-dihydro-4H-pyrazolo[4,3-c]pyridine-5-carboxamide] | 0.1 to 1 nM | < 1 nM | > 10000 nM |
| CNC(=O)N1CCc2c(c(N3CCCc4cc(-c5cnn(C)c5)c(C(F)F)cc43)nn2C2CCN(C(=O)CN3CCN(c4ccc(C(=O)NC5C(C)(C)C(Oc6ccc(C#N)c(Cl)c6)C5(C)C)cc4)CC3)CC2)C1 (stereo not drawn) [Compound 41, 1-[1-[2-[4-[4-[[3-(3-chloro-4-cyano-phenoxy)-2,2,4,4-tetramethyl-cyclobutyl]carbamoyl]phenyl]piperazin-1-yl]acetyl]-4-piperidyl]-3-[7-(difluoromethyl)-6-(1-methylpyrazol-4-yl)-3,4-dihydro-2H-quinolin-1-yl]-N-methyl-6,7-dihydro-4H-pyrazolo[4,3-c]pyridine-5-carboxamide] | 0.1 to 1 nM | < 1 nM | > 10000 nM |
